Active and inactive are the calls of the source. The rule behind the calls is not given here.

The target of assay [1] is T1, Cholinesterase (Homo sapiens, UniProt P06276). Kind of assay: Inhibition of human serum BchE by Ellman's assay. Background: Ellman's reagent forms a yellow product with free thiols.
The target of assay [2] is Acetylcholinesterase (Homo sapiens) (UniProt P22303).
Description: Inhibition of human recombinant AchE by Ellman's assay
Assay [3] concerns the target T1, Cholinesterase. The experiment in a line: Inhibition of human serum BchE at 23.6 uM by Ellman's assay.
Assay [4] concerns the target T1, Cholinesterase. Kind of assay: Deactivation of human wild type recombinant BchE assessed as residual enzyme activity at 2.1 uM after 5 mins.
Assay [5] has as its target T1, Cholinesterase. The experiment in a line: Deactivation of human wild type recombinant BchE assessed as residual enzyme activity at 2.1 uM after 10 mins.
The target in assay [6] is T1, Cholinesterase. Kind of assay: Deactivation of human wild type recombinant BchE assessed as residual enzyme activity at 2.1 uM after 15 mins.
Assay [7] concerns the target T1, Cholinesterase. The experiment in a line: Deactivation of human BchE D70G mutant assessed as residual enzyme activity at 2.1 uM after 5 mins.
For assay [8], the target named is T1, Cholinesterase. The experiment in a line: Deactivation of human BchE D70G mutant assessed as residual enzyme activity at 2.1 uM after 10 mins.
Assay [9] has as its target T1, Cholinesterase. Kind of assay: Deactivation of human BchE D70G mutant assessed as residual enzyme activity at 2.1 uM after 15 mins.
Assay [10] concerns the target T1, Cholinesterase. The experiment in a line: Deactivation of human BchE A539T mutant assessed as residual enzyme activity at 2.1 uM after 5 mins.
Assay [11] addresses T1, Cholinesterase. Kind of assay: Deactivation of human BchE A539T mutant assessed as residual enzyme activity at 2.1 uM after 10 mins.
Assay [12] deals with T1, Cholinesterase. The experiment in a line: Deactivation of human BchE A539T mutant assessed as residual enzyme activity at 2.1 uM after 15 mins.
Assay [13] concerns the target T1, Cholinesterase. The experiment in a line: Deactivation of human BchE Y332A mutant assessed as residual enzyme activity at 2.1 uM after 5 mins.
Assay [14] addresses T1, Cholinesterase. Kind of assay: Deactivation of human BchE Y332A mutant assessed as residual enzyme activity at 2.1 uM after 10 mins.
Assay [15] has as its target T1, Cholinesterase. The experiment in a line: Deactivation of human BchE Y332A mutant assessed as residual enzyme activity at 2.1 uM after 15 mins.
The target in assay [16] is T1, Cholinesterase. The experiment in a line: Deactivation of human BchE A328Y mutant assessed as residual enzyme activity at 2.1 uM after 5 mins.
The target of assay [17] is T1, Cholinesterase. Kind of assay: Deactivation of human BchE A328Y mutant assessed as residual enzyme activity at 2.1 uM after 10 mins.
In assay [18] the target is T1, Cholinesterase. Kind of assay: Deactivation of human BchE A328Y mutant assessed as residual enzyme activity at 2.1 uM after 15 mins.
For assay [19], the target named is T1, Cholinesterase. The experiment in a line: Deactivation of human BchE A328F mutant assessed as residual enzyme activity at 2.1 uM after 5 mins.
Assay [20] concerns the target T1, Cholinesterase. Kind of assay: Deactivation of human BchE A328F mutant assessed as residual enzyme activity at 2.1 uM after 10 mins.
In assay [21] the target is T1, Cholinesterase. The experiment in a line: Deactivation of human BchE A328F mutant assessed as residual enzyme activity at 2.1 uM after 15 mins.
Assay [22] has as its target T1, Cholinesterase. The experiment in a line: Deactivation of human BchE A328W mutant assessed as residual enzyme activity at 2.1 uM after 5 mins.
Assay [23] has as its target T1, Cholinesterase. The experiment in a line: Deactivation of human BchE A328W mutant assessed as residual enzyme activity at 2.1 uM after 10 mins.
Assay [24] addresses T1, Cholinesterase. The experiment in a line: Deactivation of human BchE A328W mutant assessed as residual enzyme activity at 2.1 uM after 15 mins.
Assay [25] addresses T1, Cholinesterase. Kind of assay: Deactivation of human BchE F329S mutant assessed as residual enzyme activity at 2.1 uM after 5 mins.
For assay [26], the target named is T1, Cholinesterase. Kind of assay: Deactivation of human BchE F329S mutant assessed as residual enzyme activity at 2.1 uM after 10 mins.
Assay [27] deals with T1, Cholinesterase. Kind of assay: Deactivation of human BchE F329S mutant assessed as residual enzyme activity at 2.1 uM after 15 mins.
Assay [28] has as its target T1, Cholinesterase. Kind of assay: Deactivation of human BchE F329A mutant assessed as residual enzyme activity at 2.1 uM after 5 mins.
For assay [29], the target named is T1, Cholinesterase. Kind of assay: Deactivation of human BchE F329A mutant assessed as residual enzyme activity at 2.1 uM after 10 mins.
Assay [30] concerns the target T1, Cholinesterase. The experiment in a line: Deactivation of human BchE F329A mutant assessed as residual enzyme activity at 2.1 uM after 15 mins.
The target of assay [31] is T1, Cholinesterase. Kind of assay: Inhibition of human serum BchE at 73.3 uM by Ellman's assay.

T1 sequence (P06276 whole entry): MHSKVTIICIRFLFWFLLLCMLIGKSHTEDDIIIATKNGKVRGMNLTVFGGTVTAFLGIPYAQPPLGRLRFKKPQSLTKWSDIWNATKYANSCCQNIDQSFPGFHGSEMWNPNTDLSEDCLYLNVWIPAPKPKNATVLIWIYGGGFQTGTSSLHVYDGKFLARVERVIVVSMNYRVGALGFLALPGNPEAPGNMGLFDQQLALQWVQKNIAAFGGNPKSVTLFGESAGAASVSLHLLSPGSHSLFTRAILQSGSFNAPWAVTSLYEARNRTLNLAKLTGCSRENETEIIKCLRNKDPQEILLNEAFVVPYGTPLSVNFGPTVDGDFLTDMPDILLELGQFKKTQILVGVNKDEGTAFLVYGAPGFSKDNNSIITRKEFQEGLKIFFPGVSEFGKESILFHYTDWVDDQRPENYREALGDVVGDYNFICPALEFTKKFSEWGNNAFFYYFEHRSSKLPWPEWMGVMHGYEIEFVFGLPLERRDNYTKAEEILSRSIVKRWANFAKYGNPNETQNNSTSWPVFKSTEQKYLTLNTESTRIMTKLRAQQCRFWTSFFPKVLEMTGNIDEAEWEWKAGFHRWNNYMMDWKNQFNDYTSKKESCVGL
Sequence of Acetylcholinesterase (Homo sapiens) (P22303 whole entry): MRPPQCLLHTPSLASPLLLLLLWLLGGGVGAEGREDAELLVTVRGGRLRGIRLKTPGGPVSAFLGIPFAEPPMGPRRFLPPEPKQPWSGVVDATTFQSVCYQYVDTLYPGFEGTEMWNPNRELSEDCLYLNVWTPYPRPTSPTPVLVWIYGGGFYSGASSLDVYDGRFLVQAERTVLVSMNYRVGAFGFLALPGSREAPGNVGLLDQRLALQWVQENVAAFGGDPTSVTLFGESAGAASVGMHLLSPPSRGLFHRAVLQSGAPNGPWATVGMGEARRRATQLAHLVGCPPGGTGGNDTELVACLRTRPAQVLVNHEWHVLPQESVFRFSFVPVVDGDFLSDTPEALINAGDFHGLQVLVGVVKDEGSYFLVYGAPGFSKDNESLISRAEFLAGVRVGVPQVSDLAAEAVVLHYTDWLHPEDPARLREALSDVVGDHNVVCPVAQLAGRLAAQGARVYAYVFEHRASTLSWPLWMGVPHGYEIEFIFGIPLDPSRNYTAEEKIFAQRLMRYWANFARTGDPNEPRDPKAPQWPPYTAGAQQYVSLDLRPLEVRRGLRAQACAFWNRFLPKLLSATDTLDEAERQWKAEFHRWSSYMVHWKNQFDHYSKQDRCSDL

Consider `O=C(Oc1ccc2ccccc2c1)N1c2ccccc2Sc2ccccc21`, for which affinity at Cholinesterase [1] was put at a Ki of 0.12 µM. For the same compound, in assay [2], the Ka was 11.2 ×10³ /M/min.

Consider `O=C(Oc1ccc(-c2ccccc2)cc1)N1c2ccccc2Sc2ccccc21`, for which the result on Cholinesterase [3] was inactive. In addition, the Activity on Cholinesterase [4] turned out to be 100%; at Cholinesterase [5] it was 100%; at Cholinesterase [6], 100%; at Cholinesterase [7], 99.5%; at Cholinesterase [8] it was 90%; on Cholinesterase [9], 76%. The Activity was determined as 99% at Cholinesterase [10]; 94% on Cholinesterase [11]; 93% on Cholinesterase [12]; 58% at Cholinesterase [13]; 87% at Cholinesterase [14]; 85% at Cholinesterase [15]. Further, the Activity on Cholinesterase [16] was determined as 85%; on Cholinesterase [17], 67%; on Cholinesterase [18], 63%; on Cholinesterase [19], 88%; at Cholinesterase [20], 75%; at Cholinesterase [21] it was 59%. Moreover, the Activity stood at 74% on Cholinesterase [22]; 57% on Cholinesterase [23]; 35% on Cholinesterase [24]; 51% on Cholinesterase [25]; 15% on Cholinesterase [26]; 11% on Cholinesterase [27]. For the same compound, the Activity on Cholinesterase [28] stood at 46%; on Cholinesterase [29], 26%; on Cholinesterase [30] it was 12%. Besides, in [2], the Ka stood at 910 ×10³ /M/min.

For `CCCCOC(=O)N1c2ccccc2Sc2ccccc21`, the inhibition constant Ki (in general, the equilibrium dissociation constant of an inhibitor or competing ligand from its target) at Cholinesterase [1] came out at 13.4 µM. Besides, the Ka in [2] was determined as 0.135 ×10³ /M/min.

Regarding `CCOC(=O)N1c2ccccc2Sc2ccccc21`, the Ki at Cholinesterase [1] worked out at 23.4 µM. This compound also displayed a Ka in assay [2] of 0.193 ×10³ /M/min.

On to `COC(=O)N1c2ccccc2Sc2ccccc21`, for which the inhibitory constant (Ki) on Cholinesterase [1] is 10.2 µM. For the same compound, the Ka in [2] was 0.426 ×10³ /M/min.

Compound `O=C(Oc1cccc2ccccc12)N1c2ccccc2Sc2ccccc21` registered a Ki on Cholinesterase [1] of 0.036 µM. Also, the Ka in assay [2] stood at 1650 ×10³ /M/min.

As to `O=C(Oc1ccccc1)N1c2ccccc2Sc2ccccc21`, the affinity on Cholinesterase [1] corresponds to a Ki of 0.57 µM. In addition, in [2], the Ka was 46 ×10³ /M/min.

For `CC(C)(C)c1ccc(OC(=O)N2c3ccccc3Sc3ccccc32)cc1`, the outcome at Cholinesterase [31] was inactive. Besides, the Ka in [2] is 0.63 ×10³ /M/min.

`Cc1ccc(OC(=O)N2c3ccccc3Sc3ccccc32)cc1` returned a Ki at Cholinesterase [1] of 2.85 µM. This compound gave a Ka in assay [2] of 92.6 ×10³ /M/min.

`O=C(Oc1cccc(Cl)c1)N1c2ccccc2Sc2ccccc21` yielded a Ki at Cholinesterase [1] of 0.57 µM. The compound also came in with a Ka in assay [2] of 3.21 ×10³ /M/min.

`COc1cccc(OC(=O)N2c3ccccc3Sc3ccccc32)c1` came in with a Ki at Cholinesterase [1] of 0.71 µM. Further, in assay [2], the Ka is 89.4 ×10³ /M/min.

For `Cc1cccc(OC(=O)N2c3ccccc3Sc3ccccc32)c1`, the Ki on Cholinesterase [1] came to 1.69 µM. The same compound came in with a Ka in assay [2] of 7.49 ×10³ /M/min.

On Cholinesterase [1], `CCN(CC)CCOC(=O)N1c2ccccc2Sc2ccccc21` returned a Ki of 0.61 µM. This compound yielded a Ka in assay [2] of 0.24 ×10³ /M/min.

Compound `CCN(CC)CCCOC(=O)N1c2ccccc2Sc2ccccc21` showed a Ki at Cholinesterase [1] of 0.74 µM. In assay [2], this compound displayed a Ka of 0.21 ×10³ /M/min.

On to `CN(C)c1cccc(OC(=O)N2c3ccccc3Sc3ccccc32)c1`, for which affinity on Cholinesterase [1] was put at a Ki of 1.91 µM. In assay [2], the Ka amounted to 19200 ×10³ /M/min.

The compound `CCCOC(=O)N1c2ccccc2Sc2ccccc21` gave a Ki on Cholinesterase [1] of 260 µM. The Ka in assay [2] turned out to be 0.219 ×10³ /M/min.

`CC(C)(C)OC(=O)N1c2ccccc2Sc2ccccc21`: at Cholinesterase [1], the Ki was determined as 4.3 µM. In assay [2], this compound gave a Ka of 0.219 ×10³ /M/min.

With `O=C(Oc1ccc(Cl)cc1)N1c2ccccc2Sc2ccccc21`, the Ki on Cholinesterase [1] was found to be 10.5 µM. In assay [2], this compound had a Ka of 7.25 ×10³ /M/min.

For the compound `CC(C)(C)c1ccccc1OC(=O)N1c2ccccc2Sc2ccccc21`, the affinity at Cholinesterase [1], expressed as Ki, was 0.12 µM. In addition, in assay [2], the Ka is 0.011 ×10³ /M/min.

`COc1ccccc1OC(=O)N1c2ccccc2Sc2ccccc21` yielded a Ki on Cholinesterase [1] of 0.34 µM. The compound also displayed a Ka in [2] of 5.99 ×10³ /M/min.

Turning to `CN(C)CCOC(=O)N1c2ccccc2Sc2ccccc21`, at Cholinesterase [1], affinity was put at a Ki of 2.45 µM. The Ka in [2] was 0.546 ×10³ /M/min.

The compound `Cc1ccccc1OC(=O)N1c2ccccc2Sc2ccccc21` yielded a Ki at Cholinesterase [1] of 0.39 µM. Besides, in assay [2], the Ka came out at 547 ×10³ /M/min.

In turn, `O=C(Oc1ccccc1Cl)N1c2ccccc2Sc2ccccc21` came in with a Ki on Cholinesterase [1] of 45.4 µM. In assay [2], this compound returned a Ka of 18.7 ×10³ /M/min.

For the compound `CC(C)OC(=O)N1c2ccccc2Sc2ccccc21`, the Ki at Cholinesterase [1] is 18.1 µM. Further, the Ka in assay [2] stood at 1.8 ×10³ /M/min.

On Cholinesterase [1], `O=C(OCCN1CCCC1)N1c2ccccc2Sc2ccccc21` gave a Ki of 0.65 µM. In addition, the Ka in [2] worked out at 46 ×10³ /M/min.

`O=C(OCCN1CCCCC1)N1c2ccccc2Sc2ccccc21` registered a Ki on Cholinesterase [1] of 3.2 µM. In [2], this compound displayed a Ka of 3 ×10³ /M/min.

In the case of `O=C(OCCN1CCOCC1)N1c2ccccc2Sc2ccccc21`, the Ki on Cholinesterase [1] was 2.4 µM. In assay [2], the Ka is 0.12 ×10³ /M/min.

`COc1ccc(OC(=O)N2c3ccccc3Sc3ccccc32)cc1` registered a Ki on Cholinesterase [1] of 2.26 µM. The same compound returned a Ka in [2] of 1.42 ×10³ /M/min.

With `O=C(OC1CCCC1)N1c2ccccc2Sc2ccccc21`, at Cholinesterase [1], the Ki was 3.19 µM. Further, the Ka in assay [2] worked out at 0.492 ×10³ /M/min.

For the origin of these results see ChEMBL document CHEMBL1155042, “Carbamates with differential mechanism of inhibition toward acetylcholinesterase and butyrylcholinesterase” (J Med Chem, 2008).
